Measured values published in ChEMBL document CHEMBL1139861, “Novel series of potent, nonsteroidal, selective androgen receptor modulators based on 7H-[1,4]oxazino[3,2-g]quinolin-7-ones” (J Med Chem, 2007).

Assays:
Androgen receptor [1] = molecular target: T1, Androgen receptor (Homo sapiens, UniProt P10275); experiment: biochemical
T1 sequence (P10275 whole entry): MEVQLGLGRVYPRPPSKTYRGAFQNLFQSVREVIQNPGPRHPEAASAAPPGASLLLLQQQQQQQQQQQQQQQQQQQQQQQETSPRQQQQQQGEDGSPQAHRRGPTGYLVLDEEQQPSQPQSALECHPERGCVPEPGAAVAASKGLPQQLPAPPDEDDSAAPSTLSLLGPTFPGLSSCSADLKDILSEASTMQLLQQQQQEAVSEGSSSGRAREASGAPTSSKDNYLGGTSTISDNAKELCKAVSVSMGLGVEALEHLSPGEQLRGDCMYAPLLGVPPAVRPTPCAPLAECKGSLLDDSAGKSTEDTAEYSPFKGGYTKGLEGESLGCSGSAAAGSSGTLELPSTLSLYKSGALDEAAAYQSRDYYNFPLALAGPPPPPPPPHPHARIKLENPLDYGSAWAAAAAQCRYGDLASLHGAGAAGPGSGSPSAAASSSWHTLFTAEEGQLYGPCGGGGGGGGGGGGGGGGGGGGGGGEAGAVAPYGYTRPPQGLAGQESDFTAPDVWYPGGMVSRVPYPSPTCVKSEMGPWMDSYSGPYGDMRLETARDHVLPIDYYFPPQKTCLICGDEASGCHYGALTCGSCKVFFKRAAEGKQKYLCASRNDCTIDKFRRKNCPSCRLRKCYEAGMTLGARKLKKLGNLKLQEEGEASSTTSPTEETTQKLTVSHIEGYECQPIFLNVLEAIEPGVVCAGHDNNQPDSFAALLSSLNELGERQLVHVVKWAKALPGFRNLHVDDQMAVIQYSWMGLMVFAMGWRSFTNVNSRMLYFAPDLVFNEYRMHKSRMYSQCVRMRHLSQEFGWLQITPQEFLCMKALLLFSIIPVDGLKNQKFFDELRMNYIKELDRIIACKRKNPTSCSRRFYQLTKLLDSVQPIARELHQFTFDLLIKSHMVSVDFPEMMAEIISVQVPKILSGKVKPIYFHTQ
Description: Displacement of [3H]DHT from human AR expressed in MDA-MB-453 cells

Androgen receptor [2] = molecular target: T1, Androgen receptor
Description: Antagonist activity at human androgen receptor expressed in CV1 cells by transcriptional activation assay

Androgen receptor [3] = molecular target: T1, Androgen receptor; remark: listed apart in the source
Description: Agonist activity at human androgen receptor expressed in CV1 cells by transcriptional activation assay

Glucocorticoid receptor = molecular target: T2, Glucocorticoid receptor (Homo sapiens, UniProt P04150); experiment: Displacement of radiolabeled Dexamethasone from human GR
T2 sequence (P04150 whole entry): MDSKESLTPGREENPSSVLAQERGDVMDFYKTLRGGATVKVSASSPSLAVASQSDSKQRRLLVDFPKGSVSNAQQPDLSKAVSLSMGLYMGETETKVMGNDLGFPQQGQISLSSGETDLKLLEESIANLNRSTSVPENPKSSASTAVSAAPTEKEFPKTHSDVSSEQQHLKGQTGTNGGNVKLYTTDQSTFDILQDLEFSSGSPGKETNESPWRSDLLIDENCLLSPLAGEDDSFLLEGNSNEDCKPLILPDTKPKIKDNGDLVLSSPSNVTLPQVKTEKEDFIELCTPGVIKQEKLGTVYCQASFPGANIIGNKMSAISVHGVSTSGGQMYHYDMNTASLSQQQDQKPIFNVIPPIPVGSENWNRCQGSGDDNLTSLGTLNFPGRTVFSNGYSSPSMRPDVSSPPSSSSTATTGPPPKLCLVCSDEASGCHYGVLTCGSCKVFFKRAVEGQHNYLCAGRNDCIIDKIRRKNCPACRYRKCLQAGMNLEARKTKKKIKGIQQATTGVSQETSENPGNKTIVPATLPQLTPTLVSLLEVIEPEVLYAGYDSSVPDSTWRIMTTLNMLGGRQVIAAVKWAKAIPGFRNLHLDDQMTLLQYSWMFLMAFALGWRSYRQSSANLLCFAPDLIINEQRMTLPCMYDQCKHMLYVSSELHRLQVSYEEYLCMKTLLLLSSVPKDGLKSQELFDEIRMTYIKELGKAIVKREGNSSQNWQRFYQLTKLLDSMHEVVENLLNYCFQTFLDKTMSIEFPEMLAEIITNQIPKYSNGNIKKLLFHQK

Progesterone receptor = molecular target: T3, Progesterone receptor (Homo sapiens, UniProt P06401)
T3 sequence (P06401 whole entry): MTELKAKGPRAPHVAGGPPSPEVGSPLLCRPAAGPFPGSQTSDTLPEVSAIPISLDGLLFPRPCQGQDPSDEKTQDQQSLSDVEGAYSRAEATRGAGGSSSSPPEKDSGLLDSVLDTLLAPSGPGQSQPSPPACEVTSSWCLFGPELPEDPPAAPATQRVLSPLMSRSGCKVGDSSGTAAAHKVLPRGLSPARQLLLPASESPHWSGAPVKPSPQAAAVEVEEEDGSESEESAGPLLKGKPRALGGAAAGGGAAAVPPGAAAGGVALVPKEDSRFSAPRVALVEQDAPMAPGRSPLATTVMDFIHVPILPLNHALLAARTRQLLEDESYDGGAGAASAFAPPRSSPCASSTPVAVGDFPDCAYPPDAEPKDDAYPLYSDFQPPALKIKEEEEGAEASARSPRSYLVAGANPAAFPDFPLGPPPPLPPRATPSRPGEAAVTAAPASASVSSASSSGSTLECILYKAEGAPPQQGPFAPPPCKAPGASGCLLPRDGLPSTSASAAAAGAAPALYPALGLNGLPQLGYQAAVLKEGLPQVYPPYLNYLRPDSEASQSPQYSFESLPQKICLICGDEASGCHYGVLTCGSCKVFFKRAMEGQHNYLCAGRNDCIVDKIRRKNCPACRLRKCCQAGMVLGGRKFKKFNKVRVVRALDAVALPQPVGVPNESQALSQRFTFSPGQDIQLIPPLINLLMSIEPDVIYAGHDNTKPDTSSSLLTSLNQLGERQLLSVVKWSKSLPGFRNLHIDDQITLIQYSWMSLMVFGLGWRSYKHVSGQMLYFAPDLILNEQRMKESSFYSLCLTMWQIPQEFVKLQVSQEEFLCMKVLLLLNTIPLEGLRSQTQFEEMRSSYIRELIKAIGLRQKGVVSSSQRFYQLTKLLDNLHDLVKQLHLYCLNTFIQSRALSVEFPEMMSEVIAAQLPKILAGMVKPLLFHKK
Description: Displacement of [3H]progesterone from human PRA

[4] = molecular target: T4, Mineralocorticoid receptor (Homo sapiens, UniProt P08235)
T4 sequence (P08235 whole entry): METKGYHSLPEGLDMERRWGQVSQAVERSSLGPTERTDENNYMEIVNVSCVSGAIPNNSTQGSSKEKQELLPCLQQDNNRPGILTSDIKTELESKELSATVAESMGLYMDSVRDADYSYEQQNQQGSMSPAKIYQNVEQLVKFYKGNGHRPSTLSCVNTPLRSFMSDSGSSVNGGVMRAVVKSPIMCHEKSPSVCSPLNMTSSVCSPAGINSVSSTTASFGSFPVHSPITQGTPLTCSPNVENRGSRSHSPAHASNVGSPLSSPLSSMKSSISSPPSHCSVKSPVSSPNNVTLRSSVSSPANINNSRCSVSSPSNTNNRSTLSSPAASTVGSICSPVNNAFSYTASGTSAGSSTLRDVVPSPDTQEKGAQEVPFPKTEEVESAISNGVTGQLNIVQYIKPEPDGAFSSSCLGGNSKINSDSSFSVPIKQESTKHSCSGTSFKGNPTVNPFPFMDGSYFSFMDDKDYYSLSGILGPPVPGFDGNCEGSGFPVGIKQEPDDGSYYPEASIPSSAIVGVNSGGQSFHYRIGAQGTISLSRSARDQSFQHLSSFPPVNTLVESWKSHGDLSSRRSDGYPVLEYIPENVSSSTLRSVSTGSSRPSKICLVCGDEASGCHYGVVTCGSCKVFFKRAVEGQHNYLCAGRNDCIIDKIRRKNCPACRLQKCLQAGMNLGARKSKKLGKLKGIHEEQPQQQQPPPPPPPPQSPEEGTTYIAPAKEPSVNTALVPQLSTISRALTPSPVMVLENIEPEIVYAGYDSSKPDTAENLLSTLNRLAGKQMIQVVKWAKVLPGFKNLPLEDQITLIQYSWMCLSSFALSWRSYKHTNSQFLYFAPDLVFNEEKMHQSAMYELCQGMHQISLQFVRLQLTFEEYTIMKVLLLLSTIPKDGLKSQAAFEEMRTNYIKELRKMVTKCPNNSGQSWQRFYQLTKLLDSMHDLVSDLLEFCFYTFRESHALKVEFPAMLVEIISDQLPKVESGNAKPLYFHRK
Description: Displacement of radiolabeled aldosterone from human MR

Rattus norvegicus [5] = species: Rattus norvegicus; conditions: dose 100 mg/kg; route oral
Rattus norvegicus [6] = species: Rattus norvegicus; conditions: dose 100 mg/kg; route oral; remark: listed apart in the source

CCC1CN(CC)c2cc3c(C(F)(F)F)cc(=O)[nH]c3cc2O1 (racemic)
Ki (Androgen receptor [1]): 0.034 µM
IC50 (Androgen receptor [2]): > 10 µM
EC50 (Androgen receptor [3]): 0.031 µM

CC1COc2cc3[nH]c(=O)cc(C(F)(F)F)c3cc2N1 (racemic)
Ki (Androgen receptor [1]): 0.113 µM
EC50 (Androgen receptor [3]): 0.133 µM

CCC1COc2cc3[nH]c(=O)cc(C(F)(F)F)c3cc2N1CC (racemic)
Ki (Androgen receptor [1]): 0.0056 µM
EC50 (Androgen receptor [3]): 0.0039 µM

O=c1cc(C(F)(F)F)c2cc3c(cc2[nH]1)OCC1CCCCN31 (racemic)
Ki (Androgen receptor [1]): 0.016 µM
Ki (Glucocorticoid receptor): > 10 µM
EC50 (Androgen receptor [3]): 0.014 µM
Ki (Progesterone receptor): > 10 µM

CCC1CN(CC(F)(F)F)c2cc3c(C(F)(F)F)cc(=O)[nH]c3cc2O1 (racemic)
Ki (Androgen receptor [1]): 0.03 µM
IC50 (Androgen receptor [2]): > 10 µM
EC50 (Androgen receptor [3]): 0.015 µM

O=c1cc(C(F)(F)F)c2cc3c(cc2[nH]1)OC[C@H]1CCCN31
Ki (Androgen receptor [1]): 0.027 µM
EC50 (Androgen receptor [3]): 0.026 µM

CCN1CCOc2cc3[nH]c(=O)cc(C(F)(F)F)c3cc21
Ki (Glucocorticoid receptor): 8.1 µM
IC50 (Androgen receptor [2]): > 10 µM
Ki [4]: > 10 µM
Ki (Progesterone receptor): 5.2 µM

CCC1COc2cc3[nH]c(=O)cc(C(F)(F)F)c3cc2N1CC1CC1 (racemic)
Ki (Androgen receptor [1]): 0.023 µM
Ki (Glucocorticoid receptor): > 10 µM
EC50 (Androgen receptor [3]): 0.0023 µM
Ki (Progesterone receptor): 5.4 µM

CC1CN(CC(F)(F)F)c2cc3c(C(F)(F)F)cc(=O)[nH]c3cc2O1 (stereo in doubt; (-)-10h)
IC50 (Androgen receptor [2]): > 10 µM

O=c1cc(C(F)(F)F)c2cc3c(cc2[nH]1)OCCN3Cc1ccccc1
Ki (Androgen receptor [1]): 0.206 µM
IC50 (Androgen receptor [2]): 0.224 µM
EC50 (Androgen receptor [3]): > 10 µM

CCCN1CCOc2cc3[nH]c(=O)cc(C(F)(F)F)c3cc21
IC50 (Androgen receptor [2]): > 10 µM

CCN1c2cc3c(C(F)(F)F)cc(=O)[nH]c3cc2OCC1C (racemic)
Ki (Androgen receptor [1]): 0.0042 µM
EC50 (Androgen receptor [3]): 0.01 µM

O=c1cc(C(F)(F)F)c2cc3c(cc2[nH]1)OCCN3CC(F)(F)F
Ki (Glucocorticoid receptor): 9.2 µM
IC50 (Androgen receptor [2]): > 10 µM
Ki [4]: > 10 µM
Ki (Progesterone receptor): 5.3 µM

CC(C)CN1CCOc2cc3[nH]c(=O)cc(C(F)(F)F)c3cc21
Ki (Androgen receptor [1]): 0.017 µM
EC50 (Androgen receptor [3]): 0.0032 µM

CC(C)C[C@@H]1COc2cc3[nH]c(=O)cc(C(F)(F)F)c3cc2N1CC(F)(F)F
Ki (Androgen receptor [1]): 0.109 µM
EC50 (Androgen receptor [3]): 0.027 µM

CN1CCOc2cc3[nH]c(=O)cc(C(F)(F)F)c3cc21
IC50 (Androgen receptor [2]): > 10 µM

CC(C)(C)N1CCOc2cc3[nH]c(=O)cc(C(F)(F)F)c3cc21
Ki (Androgen receptor [1]): 0.048 µM
IC50 (Androgen receptor [2]): > 10 µM
EC50 (Androgen receptor [3]): 0.0078 µM

O=c1cc(C(F)(F)F)c2cc3c(cc2[nH]1)OCCN3
Ki (Androgen receptor [1]): > 1 µM
IC50 (Androgen receptor [2]): 0.296 µM
EC50 (Androgen receptor [3]): > 10 µM

CC(C)[C@@H]1COc2cc3[nH]c(=O)cc(C(F)(F)F)c3cc2N1CC(F)(F)F
Ki (Androgen receptor [1]): 0.051 µM
EC50 (Androgen receptor [3]): 0.0059 µM

CCC1CN(C)c2cc3c(C(F)(F)F)cc(=O)[nH]c3cc2O1 (racemic)
Ki (Androgen receptor [1]): 0.058 µM
IC50 (Androgen receptor [2]): 0.067 µM
EC50 (Androgen receptor [3]): 0.052 µM

C[C@]1(O)CC[C@H]2[C@@H]3CCC4=CC(=O)CC[C@]4(C)[C@@]3(F)[C@@H](O)C[C@@]21C [FLUOXYMESTERONE]
Efficacy (Rattus norvegicus [5]): 129%
Efficacy (Rattus norvegicus [6]): 79%

CC1CN(C)c2cc3c(C(F)(F)F)cc(=O)[nH]c3cc2O1 (racemic)
Ki (Androgen receptor [1]): 0.033 µM
EC50 (Androgen receptor [3]): 0.047 µM

CC1CN(CC(F)(F)F)c2cc3c(C(F)(F)F)cc(=O)[nH]c3cc2O1 (racemic)
Ki (Glucocorticoid receptor): > 10 µM
Ki [4]: > 10 µM
Ki (Progesterone receptor): 7 µM

O=c1cc(C(F)(F)F)c2cc3c(cc2[nH]1)OCCN3CC1CC1
Ki (Glucocorticoid receptor): 8.8 µM
Ki [4]: > 10 µM
Ki (Progesterone receptor): 2 µM

CC1COc2cc3[nH]c(=O)cc(C(F)(F)F)c3cc2N1CC1CC1 (racemic)
Ki (Androgen receptor [1]): 0.004 µM
EC50 (Androgen receptor [3]): 0.0019 µM
